The record followed here is patent US8962810B2, “Macrocyclic heterocyclic compound for inhibiting hepatitis C virus and preparation and use thereof” (AB Pharma Ltd., priority 2011, dated 2015).

For the test, the target named is T1, HCV Protease (HCV NS3-4A) (Hepatitis C virus genotype 1a, UniProt P27958).
T1 construct: HCV Protease: HCV NS3-4A, self-prepared; made in house
T1 sequence (P27958 1658-1711): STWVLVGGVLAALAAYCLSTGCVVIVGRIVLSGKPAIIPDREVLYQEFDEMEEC
T1 sequence (P27958 1027-1657): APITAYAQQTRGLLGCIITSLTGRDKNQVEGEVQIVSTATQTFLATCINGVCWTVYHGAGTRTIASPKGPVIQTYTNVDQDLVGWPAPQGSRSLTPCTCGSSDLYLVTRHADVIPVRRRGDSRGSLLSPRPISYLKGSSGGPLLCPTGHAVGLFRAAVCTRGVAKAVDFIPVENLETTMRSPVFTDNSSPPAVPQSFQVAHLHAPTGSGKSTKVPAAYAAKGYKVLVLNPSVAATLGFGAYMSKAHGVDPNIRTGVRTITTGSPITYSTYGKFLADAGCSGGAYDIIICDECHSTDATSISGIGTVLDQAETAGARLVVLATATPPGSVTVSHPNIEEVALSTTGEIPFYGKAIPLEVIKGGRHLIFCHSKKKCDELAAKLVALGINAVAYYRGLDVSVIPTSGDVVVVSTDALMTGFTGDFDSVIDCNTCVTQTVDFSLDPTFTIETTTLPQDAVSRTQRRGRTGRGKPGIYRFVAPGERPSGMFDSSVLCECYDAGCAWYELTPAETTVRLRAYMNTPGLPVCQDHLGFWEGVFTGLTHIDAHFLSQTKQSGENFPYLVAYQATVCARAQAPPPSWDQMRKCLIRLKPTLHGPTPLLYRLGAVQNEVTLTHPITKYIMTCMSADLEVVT
Put plainly: HCV Protease (HCV NS3-4A) anti-activity assay, fluorescence quenching (FRET). The format is biochemical. The protocol: Method of HCV Protease (HCV NS3-4A) Anti-Activity Assay:
HCV Protease (HCV NS3/4A) anti-activity was measured by an inter fluorescence quenching system. EDANS group and DABCYL group were bonded on each side of a peptide. When protein cleavage started, fluorescence quenching of EDANS by DABCYL was detected. We used a high throughput screening model for HCV NS3/4A protease inhibitors, the tested drugs were prepared with 5 different concentrations, positive control and negative control were set in the same time. In the optimized reaction system, fluorescence were determined at ex=355, em=520 by a Polarstar fluorescence detector. Calculate the inhibition rate of each concentration; calculate the half maximal inhibitory concentration (IC50) with the method of Reed-Muench.
Materials: HCV Protease: HCV NS3-4A, self-prepared, stored at −70. HCV Protease substrate (FRET-S): Ac-Asp-Glu-Asp(EDANS)-Glu-Glu-Abu-ψ-[COO]-Ala-Ser-Lys-(DABCYL)-NH2, supplied by AnaSpec USA, prepared of 100 μM by DMSO, distributed and stored at −20 without light. Buffer solution: 30 mM NaCl, 5 mM CaCl2, 10 mM DTT, 50 mM Tris (pH7.8).
Instrument: fluorescence detector Polarstar from Germany Company BMG
Preparation and operation: preparation of 10 mg/mL by DMSO, dilute of 10000, 2000, 400, 80, 16 ng/mL as tested concentrations by buffer solutions, adding 20 μL into each well, the total reaction system is 200 μL, to make the final concentrations of 1000, 200, 40, 8, 1.6 ng/mL. Add 140 μL buffer solution, 20 μL drug solution, 20 μL HCV protease, and 20 μL FRET-S substrate with final concentration of 0.25 μM into 96-well fluorescence microtiterplate, the reaction started at 37, set control wells of protease-substrate reaction and of isolate substrate and isolate protease, fluorescence signals were detected by fluorescence detector (ex=355,em=520). Calculate the inhibition rates of samples for each concentration by comparison of fluorescence value of sample in each well and the fluorescence control value of enzyme, calculate the half maximal inhibitory concentration (IC50) of samples to HCV protease with the method of Reed-Muench.
THF and Et2O were distilled from sodium metal and benzophenone. DCM, pentane and hexane were distilled form calcium hydride. Special raw materials and intermediates in the invention were supplied by Zannan SciTech Co. for ordered processing, Ltd. in Shanghai, others reagents were purchased from Shanghai reagent company, Aldrich, Acros etc. If intermediates or products of synthesis were not enough for the next step of reaction, the synthesis shall be repeated until it is sufficient. The HCV protease (HCV NS3-4A) inhibitory activity assays in the present invention were performed by relevant cooperation service units of China Institutes for Biological Science in Beijing.
For orientation: IC50 means the midpoint of a concentration-inhibition curve. A higher IC50 goes with lower potency. `CC[C@H]1C[C@@]1(NC(=O)C1C[C@@H]2CN1C(=O)[C@H](C(C)(C)C)NC(=O)OCCC/C=C/CSc1cccc3c1CN(C3)C(=O)O2)C(=O)NS(=O)(=O)C1CC1` (some centres unmarked) [Compound 15cc] yielded an IC50 of 0.1 to 5 nM.

`C=C[C@H]1C[C@@]1(NC(=O)C1C[C@@H]2CN1C(=O)[C@H](C(C)(C)C)NC(=O)OCC(C)(C)CC/C=C\c1c3c(cc4c1OCO4)CN(C3)C(=O)O2)C(=O)NS(=O)(=O)C1CC1` (some centres unmarked) [Compound 15bv] gave a concentration for half-maximal inhibition (IC50) of 0.1 to 5 nM.

Consider `CC[C@H]1C[C@@]1(NC(=O)C1C[C@@H]2CN1C(=O)[C@H](C(C)(C)C)NC(=O)OCC(C)(C)CCCCc1c3c(cc4c1OCO4)CN(C3)C(=O)O2)C(=O)NS(=O)(=O)C1CC1` (some centres unmarked) [Compound 15by], for which the IC50 is 0.1 to 5 nM.

Turning to `C=C[C@H]1C[C@@]1(NC(=O)C1C[C@@H]2CN1C(=O)[C@H](C(C)(C)C)NC(=O)OCCCC/C=C\c1c3c(cc4c1OCO4)CN(C3)C(=O)O2)C(=O)NS(=O)(=O)C1CC1` (some centres unmarked) [Compound 15bu], the half-maximal inhibitory concentration (IC50) was 0.1 to 5 nM.

In turn, `CC[C@H]1C[C@@]1(NC(=O)C1C[C@@H]2CN1C(=O)[C@H](C(C)(C)C)NC(=O)OCCCCCCCOc1cccc3c1CN(C3)C(=O)O2)C(=O)NS(=O)(=O)C1CC1` (some centres unmarked) [Compound 15x] had an IC50 of 0.1 to 5 nM.

The compound `CCC1CC1(NC(=O)C1CC2CN1C(=O)C(C(C)(C)C)NC(=O)OCC(C)(C)CCCCCNC(=O)c1cccc3c1CN(C3)C(=O)O2)C(=O)NS(=O)(=O)C1CC1` (centres unmarked) [Compound 15bd] had a half-maximal inhibitory concentration (IC50) of 51 to 300 nM.

`CC[C@H]1C[C@@]1(NC(=O)C1C[C@@H]2CN1C(=O)[C@H](C(C)(C)C)NC(=O)OCCCCCCCOc1ccc3c(c1)CN(C3)C(=O)O2)C(=O)NS(=O)(=O)C1CC1` (some centres unmarked) [Compound 15be]: the IC50 lay within 0.1 to 5 nM.

Compound `CC[C@H]1C[C@@]1(NC(=O)C1C[C@@H]2CN1C(=O)[C@H](C(C)(C)C)NC(=O)OCCCCCCCCCOc1cccc3c1CN(C3)C(=O)O2)C(=O)NS(=O)(=O)C1CC1` (some centres unmarked) [Compound 15z] yielded an IC50 of 5.1 to 50 nM.

Compound `CC[C@H]1C[C@@]1(NC(=O)C1C[C@@H]2CN1C(=O)[C@H](C(C)(C)C)NC(=O)OCCCCCCc1c3c(cc4c1OCO4)CN(C3)C(=O)O2)C(=O)NS(=O)(=O)C1CC1` (some centres unmarked) [Compound 15bx] displayed an IC50 of 0.1 to 5 nM.

For the compound `C=CC1CC1(NC(=O)C1CC2CN1C(=O)C(C(C)(C)C)NC(=O)OCCCC=Cc1c3c(cc4c1OCO4)CN(C3)C(=O)O2)C(=O)NS(=O)(=O)C1CC1` (centres unmarked) [Compound 15bt], the IC50 was in the range of 0.1 to 5 nM.

`CC[C@H]1C[C@@]1(NC(=O)C1C[C@@H]2CN1C(=O)[C@H](C(C)(C)C)NC(=O)OCC(C)(C)OC/C=C/COc1cccc3c1CN(C3)C(=O)O2)C(=O)NS(=O)(=O)C1CC1` (some centres unmarked) [Compound 15aj] registered an IC50 of 0.1 to 5 nM.

In the case of `CC[C@H]1C[C@@]1(NC(=O)C1C[C@@H]2CN1C(=O)[C@H](C(C)(C)C)NC(=O)OCC1(CCCCCOc3cccc4c3CN(C4)C(=O)O2)CC1)C(=O)NS(=O)(=O)C1CC1` (some centres unmarked) [Compound 15a], the IC50 lay in the range of 0.1 to 5 nM.

`CC[C@H]1C[C@@]1(NC(=O)C1C[C@@H]2CN1C(=O)[C@H](C(C)(C)C)NC(=O)OCC1(C/C=C/COc3cccc4c3CN(C4)C(=O)O2)CC1)C(=O)NS(=O)(=O)C1CC1` (some centres unmarked) [Compound 15f] came in with an IC50 of 0.1 to 5 nM.

As for `C=C[C@H]1C[C@@]1(NC(=O)C1C[C@@H]2CN1C(=O)[C@H](C(C)(C)C)NC(=O)OCC/C=C/COc1ccc3c(c1)CN(C3)C(=O)O2)C(=O)NS(=O)(=O)C1CC1` (some centres unmarked) [Compound 15bm], the half-inhibitory concentration (IC50) was 51 to 300 nM.

Regarding `CCC1CC1(NC(=O)C1CC2CN1C(=O)C(C(C)(C)C)NC(=O)OCCCCCCCCOc1cccc3c1CN(C3)C(=O)O2)C(=O)NS(=O)(=O)C1CC1` (centres unmarked) [Compound 15y], the IC50 is 5.1 to 50 nM.

`CC[C@H]1C[C@@]1(NC(=O)C1C[C@@H]2CN1C(=O)[C@H](C(C)(C)C)NC(=O)OCC(C)(C)CCCCNC(=O)c1cccc3c1CN(C3)C(=O)O2)C(=O)NS(=O)(=O)C1CC1` (some centres unmarked) [Compound 15bc] had an IC50 of 51 to 300 nM.

`C=C[C@H]1C[C@@]1(NC(=O)C1C[C@@H]2CN1C(=O)[C@H](C(C)(C)C)NC(=O)OCC/C=C/COc1cccc3c1CN(C3)C(=O)O2)C(=O)NS(=O)(=O)C1CC1` (some centres unmarked) [Compound 15ad] returned an IC50 of 0.1 to 5 nM.

Compound `CC[C@H]1C[C@@]1(NC(=O)C1C[C@@H]2CN1C(=O)[C@H](C(C)(C)C)NC(=O)OCC(C)(C)C/C=C/COc1cccc3c1CN(C3)C(=O)O2)C(=O)NS(=O)(=O)C1CC1` (some centres unmarked) [Compound 15ar] showed an IC50 of 0.1 to 5 nM.

With `C=C[C@H]1C[C@@]1(NC(=O)C1C[C@@H]2CN1C(=O)[C@H](C(C)(C)C)NC(=O)OCC/C=C/COc1c(OC)ccc3c1CN(C3)C(=O)O2)C(=O)NS(=O)(=O)C1CC1` (some centres unmarked) [Compound 15n], the IC50 was in the range of 0.1 to 5 nM.

In turn, `CC[C@H]1C[C@@]1(NC(=O)C1C[C@@H]2CN1C(=O)[C@H](C(C)(C)C)NC(=O)OCCCC/C=C/COc1c(OC)ccc3c1CN(C3)C(=O)O2)C(=O)NS(=O)(=O)C1CC1` (some centres unmarked) [Compound 15q] gave an IC50 of 5.1 to 50 nM.

In the case of `C=C[C@H]1C[C@@]1(NC(=O)C1C[C@@H]2CN1C(=O)[C@H](C(C)(C)C)NC(=O)OCC(C)(C)OCCCCOc1cccc3c1CN(C3)C(=O)O2)C(=O)NS(=O)(=O)C1CC1` (some centres unmarked) [Compound 15ak], the IC50 was in the range of 0.1 to 5 nM.

`CCC1CC1(NC(=O)C1CC2CN1C(=O)C(C(C)(C)C)NC(=O)OCCCC=CCOc1ccc3c(c1)CN(C3)C(=O)O2)C(=O)NS(=O)(=O)C1CC1` (centres unmarked) [Compound 15bk] gave an IC50 of 5.1 to 50 nM.

In the case of `CC[C@H]1C[C@@]1(NC(=O)C1C[C@@H]2CN1C(=O)[C@H](C(C)(C)C)NC(=O)OCCCC/C=C\c1c3c(cc4c1OCO4)CN(C3)C(=O)O2)C(=O)NS(=O)(=O)C1CC1` (some centres unmarked) [Compound 15bw], the IC50 lay in the range of 0.1 to 5 nM.

As for `C=C[C@H]1C[C@@]1(NC(=O)C1C[C@@H]2CN1C(=O)[C@H](C(C)(C)C)NC(=O)OCC(C)(C)CCCCCOc1ccc3c(c1)CN(C3)C(=O)O2)C(=O)NS(=O)(=O)C1CC1` (some centres unmarked) [Compound 15bn], the IC50 lay within 0.1 to 5 nM.

Turning to `C=CC1CC1(NC(=O)C1CC2CN1C(=O)C(C(C)(C)C)NC(=O)OCC(C)(C)CC=CCOc1c(OC)ccc3c1CN(C3)C(=O)O2)C(=O)NS(=O)(=O)C1CC1` (centres unmarked) [Compound 15p], the IC50 was in the range of 0.1 to 5 nM.

Compound `CC[C@H]1C[C@@]1(NC(=O)C1C[C@@H]2CN1C(=O)[C@H](C(C)(C)C)NC(=O)OCC1(CC/C=C/COc3cccc4c3CN(C4)C(=O)O2)CC1)C(=O)NS(=O)(=O)C1CC1` (some centres unmarked) [Compound 15b] displayed an IC50 of 0.1 to 5 nM.

For the compound `C=C[C@H]1C[C@@]1(NC(=O)C1C[C@@H]2CN1C(=O)[C@H](C(C)(C)C)NC(=O)OCCC/C=C/CCOc1cccc3c1CN(C3)C(=O)O2)C(=O)NS(=O)(=O)C1CC1` (some centres unmarked) [Compound 15an], the IC50 was in the range of 0.1 to 5 nM.

For the compound `C=C[C@H]1C[C@@]1(NC(=O)C1C[C@@H]2CN1C(=O)[C@H](C(C)(C)C)NC(=O)OCCCCCCCOc1ccc3c(c1)CN(C3)C(=O)O2)C(=O)NS(=O)(=O)C1CC1` (some centres unmarked) [Compound 15bf], the IC50 was in the range of 0.1 to 5 nM.

`CC[C@H]1C[C@@]1(NC(=O)C1C[C@@H]2CN1C(=O)[C@H](C(C)(C)C)NC(=O)OCCCCCCOC(=O)c1ccc3c(c1)CN(C3)C(=O)O2)C(=O)NS(=O)(=O)C1CC1` (some centres unmarked) [Compound 15bq] gave an IC50 of 51 to 300 nM.

As for `C=CC1CC1(NC(=O)C1CC2CN1C(=O)C(C(C)(C)C)NC(=O)OCC(C)(C)CCCCCOc1cccc3c1CN(C3)C(=O)O2)C(=O)NS(=O)(=O)C1CC1` (centres unmarked) [Compound 15at], the IC50 is 0.1 to 5 nM.

In turn, `CCC1CC1(NC(=O)C1CC2CN1C(=O)C(C(C)(C)C)NC(=O)OCC(C)(C)CCCCCOc1cc(OC)cc3c1CN(C3)C(=O)O2)C(=O)NS(=O)(=O)C1CC1` (centres unmarked) [Compound 15v] showed an IC50 of 0.1 to 5 nM.

Regarding `CC[C@H]1C[C@@]1(NC(=O)C1C[C@@H]2CN1C(=O)[C@H](C(C)(C)C)NC(=O)OCC(C)(C)C/C=C/CSc1cccc3c1CN(C3)C(=O)O2)C(=O)NS(=O)(=O)C1CC1` (some centres unmarked) [Compound 15cb], the IC50 fell in the range of 0.1 to 5 nM.

Turning to `CC[C@H]1C[C@@]1(NC(=O)C1C[C@@H]2CN1C(=O)[C@H](C(C)(C)C)NC(=O)OCC(F)(F)CCCCOc1cccc3c1CN(C3)C(=O)O2)C(=O)NS(=O)(=O)C1CC1` (some centres unmarked) [Compound 15ba], the IC50 was 0.1 to 5 nM.

In turn, `CCC1CC1(NC(=O)C1CC2CN1C(=O)C(C(C)(C)C)NC(=O)OCC(C)(C)CCCCCOC(=O)c1ccc3c(c1)CN(C3)C(=O)O2)C(=O)NS(=O)(=O)C1CC1` (centres unmarked) [Compound 15bs] yielded an IC50 of 51 to 300 nM.

`C=C[C@H]1C[C@@]1(NC(=O)C1C[C@@H]2CN1C(=O)[C@H](C(C)(C)C)NC(=O)OCC(C)(C)CC/C=C/COc1cccc3c1CN(C3)C(=O)O2)C(=O)NS(=O)(=O)C1CC1` (some centres unmarked) [Compound 15au] gave an IC50 of 0.1 to 5 nM.
